Laboratory results from PMC3412939 (Biochimica et biophysica acta, 2012).

How the values were obtained:
[1] = Blue shift of tryptophan emission spectrum on membrane binding; format: physicochemical; details: PC/PG SUV, relative to spectrum without lipid; excitation 280 nm; mean ± SE
[2] = Acrylamide quenching of tryptophan fluorescence; format: physicochemical; details: 100 μM PC/PG (7:3) SUV, cholesterol-free

Blue shift of tryptophan emission at saturation [1]: 13 ± 2 nm
Ratio of quenching constants KSV(lipid)/KSV(no lipid) [2]: 0.41 ± 0.03
Substance: wRVIRLVRVFRIFKLSRH [W-S4]
